Experimental data taken from patent US12576169B2, “Silicon-fluoride acceptor substituted radiopharmaceuticals and precursors thereof” (Technische Universität München, priority 2019, dated 2026).
Like-named read-outs stand apart in the source and are kept apart here. *1 amine or outer side, *2 acyl side, *3 side chain or, on linkers, in order; H or OH if unused. Where a SMILES comes first, the peptide text is derived from it. Side-chain parts run from the residue outwards. [ ]: non-standard residue; d: D form. The star is where a group is joined. X1 = O=C(O)CC[C@H](NC(=O)N[C@@H](CCC(=O)N[C@H](CCCN*)C(=O)O)C(=O)O)C(=O)O; Benzoyl(4-SiFtBu2) = CC(C)(C)[Si](F)(c1ccc(C(=O)*)cc1)C(C)(C)C; dCit = NC(=O)NCCC[C@@H](N)C(=O)O; Suc = O=C(CCC(=O)[*:2])[*:1]; dDap = NC[C@@H](N)C(=O)O

Columns and labels:
[1] = Wangler et al. 2010; cited from earlier work
[2] = radiolabeled established inhibitors; literature; cited from earlier work
PSMA [3] = target: T1, PSMA (Homo sapiens, UniProt Q04609); details: PSMA binding affinity; literature; cited from earlier work
T1 sequence (Q04609 whole entry): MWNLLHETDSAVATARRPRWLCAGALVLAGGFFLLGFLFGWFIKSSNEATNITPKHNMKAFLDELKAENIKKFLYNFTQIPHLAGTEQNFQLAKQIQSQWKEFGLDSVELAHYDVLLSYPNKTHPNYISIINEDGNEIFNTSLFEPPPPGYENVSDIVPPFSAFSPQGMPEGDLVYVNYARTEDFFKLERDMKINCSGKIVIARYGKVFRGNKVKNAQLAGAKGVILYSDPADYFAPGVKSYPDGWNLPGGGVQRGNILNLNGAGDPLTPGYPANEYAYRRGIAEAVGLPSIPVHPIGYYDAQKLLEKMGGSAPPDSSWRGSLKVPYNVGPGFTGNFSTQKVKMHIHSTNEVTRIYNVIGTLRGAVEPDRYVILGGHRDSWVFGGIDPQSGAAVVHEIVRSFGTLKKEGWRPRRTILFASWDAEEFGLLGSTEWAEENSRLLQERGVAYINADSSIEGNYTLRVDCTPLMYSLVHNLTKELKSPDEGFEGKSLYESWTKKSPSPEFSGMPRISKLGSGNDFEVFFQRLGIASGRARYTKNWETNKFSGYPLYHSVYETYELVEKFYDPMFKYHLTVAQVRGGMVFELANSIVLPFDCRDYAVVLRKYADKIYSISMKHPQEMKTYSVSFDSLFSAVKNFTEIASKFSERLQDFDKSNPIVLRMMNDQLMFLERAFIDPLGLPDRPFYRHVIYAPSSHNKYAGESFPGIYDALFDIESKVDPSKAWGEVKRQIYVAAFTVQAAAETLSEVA

HSA = HSA (Homo sapiens, UniProt P02768); details: cited from earlier work; for Lit. HSA binding: literature values (Yamazaki, Kanaoka 2004); for Log K HSA: logarithmic K of HSA binding literature values
HSA, sequence (P02768 25-609): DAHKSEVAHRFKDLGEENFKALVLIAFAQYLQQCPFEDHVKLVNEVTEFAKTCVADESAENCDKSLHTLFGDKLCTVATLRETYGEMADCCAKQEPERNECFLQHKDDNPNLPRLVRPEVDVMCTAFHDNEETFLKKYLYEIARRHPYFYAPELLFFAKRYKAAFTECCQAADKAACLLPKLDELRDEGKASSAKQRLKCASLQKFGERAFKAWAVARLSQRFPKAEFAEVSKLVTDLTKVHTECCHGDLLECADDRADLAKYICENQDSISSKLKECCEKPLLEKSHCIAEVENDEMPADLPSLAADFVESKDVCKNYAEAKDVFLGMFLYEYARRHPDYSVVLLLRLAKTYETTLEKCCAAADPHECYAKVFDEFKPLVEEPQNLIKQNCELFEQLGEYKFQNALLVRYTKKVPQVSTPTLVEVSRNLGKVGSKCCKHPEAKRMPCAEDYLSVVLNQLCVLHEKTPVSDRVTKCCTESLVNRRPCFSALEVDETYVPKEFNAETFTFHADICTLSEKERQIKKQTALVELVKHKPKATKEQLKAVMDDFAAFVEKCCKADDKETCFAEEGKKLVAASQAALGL

[4] = n-Octanol-PBS partition coefficient (logD7.4); format: physicochemical; details: 18F-labeled ligand; n-octanol/PBS pH=7.4; mean ± SD (n = 5)
Description: Approx. 0.5 MBq of the ^18F-labeled SiFA-PSMA ligand were added into a test tube containing n-octanol (500 μL) and PBS (500 μL, pH=7.4). After vigorously shaking the two-phase mixture for 3 min at rt, the test tube was centrifuged at 9.000 rpm for 5 min to achieve quantitative phase separation. Finally, 150 μL of each layer were pipetted off and measured for activity using a gamma counter. After repeating the experiment for at least five times, the n-octanol-PBS partition coefficient log D7.4 was calculated according to following formula.

LNCaP cells = experiment: Internalization of 18F-labeled ligands into LNCaP cells; format: cell-based, human; details: internalized activity at 1 h in % of reference [125I]XII; c = 0.5 nM; LNCaP cells (125.000 cells/well); 37° C., DMEM/F-12 add. 5% BSA; corrected for non-specific binding (10 μm PMPA); mean ± SD (n = 3)
Description: LNCaP cells were grown in DMEM/F-12 (add. 10% FCS, v/v) and maintained at 37° C. in a humidified 5% CO2 atmosphere. […] Subsequent to the removal of the culture medium, cells were washed with DMEM-F12 (add. 5% BSA, v/v, 500 μL) and left to equilibrate in DMEM-F12 (add. 5% BSA, v/v, 200 μL) at 37° C. for 15 min. Each well was treated with either DMEM-F12 (add. 5% BSA, v/v, 25 μL) or a 2-(phosphonomethyl)-pentandioic acid (PMPA) solution (100 μM in PBS, 25 μL) for blockade. Afterwards, the ^18F-labeled SiFA-PSMA ligand (5 nM in PBS, 25 μL) was added and the cells were incubated for 1 h at 37° C. The experiment was terminated by placing the 24-well plate on ice for 3 min and removal of the assay medium. Each well was rinsed with HBSS (4° C., 250 μL) and the fractions were combined with the previous assay medium, representing the amount of unbound radioligand. For removal of surface bound activity, LNCaP cells were incubated with PMPA solution (10 μM in PBS, 4° C., 250 μL) for 5 min and rinsed again with PBS (250 μL, 4° C.). The internalized activity was determined by incubation of LNCaP cells with 1 M aq. NaOH (250 μL) for at least 10 min and combination with the fraction of a subsequent wash step with 1 M aq. NaOH (200 μL). Each experiment (control and blockade) was performed in triplicate. […] All internalization studies were accompanied by reference studies using the reference compound XII (2 nM in HBSS add. 1% BSA, v/v), which were performed analogously. Data were corrected for non-specific internalization and normalized to the specific-internalization observed for the radioiodinated reference compound.

[5] = target: T2, human serum albumin (HSA) (Homo sapiens, UniProt P02768); experiment: Binding to HSA on a Chiralpak HSA column; format: in vitro ADME; details: calibration with nine reference substances
T2 construct: purchased H13H-2433
T2 sequence (P02768 25-609): as above
Description: For the determination of human serum albumin (HSA) binding, a Chiralpak HSA column (50×3 mm, 5 μm, H13H-2433) was used at a constant flow rate of 0.5 mL/min. The mobile phase composed of a 50 mM NH4OAc solution in water with pH=7 (solvent C) and isopropanol (solvent D) was freshly prepared for each experiment and used only once. The reference substances (Table 1) as well as the analyzed SiFA-PSMA ligands were dissolved in a mixture of solvent C/solvent D (1:1, v/v, 0.5 mg/mL) and eluted from the HSA column (0-3 min: 100% C, 3-20 min: 20% D in C, λ=254 nm). The column was kept at rt and each run was stopped after detection of the signal to reduce the acquisition time. The nine reference substances display an HSA binding range of 13% to 99% and were injected consecutively in order to establish a sigmoidal calibration curve with the software OriginPro 2018b (FIG. 1).

PSMA [6] = target: T1, PSMA; experiment: IC50 determination: PSMA binding affinity, competition with [125I]XII on LNCaP cells
Description: LNCaP cells were grown in Dulbecco's Modified Eagle Medium/Nutrient Mixture F-12 (DMEM/F-12, add. 10% fetal calf serum (FCS), v/v) and maintained at 37° C. in a humidified 5% CO2 atmosphere. […] After removal of the culture medium, LNCaP cells were treated with HBSS (add. 1% BSA, v/v, 4° C., 500 μL) and subsequently left 15 min on ice for equilibration in HBSS (add. 1% BSA, v/v, 4° C., 200 μL). […] For the control series, HBSS (add. 1% BSA, v/v, 25 μL) was used instead of the SiFA-PSMA ligand solution. Each concentration and the control were prepared in triplicate. After 1 h incubation on ice, the assay medium was removed and cells were washed with HBSS (200 μL, 4° C.). […] NaOH (200 μL) for at least 10 min and the resulting cell lysate was removed. The wells were treated again with 1 M aq. […] The experiment was repeated for at least three times and the IC50 value calculated using the GraphPad PRISM 8.0.2 software (Graphpad Software Inc., La Jolla, United States).

[7] = LNCaP cells (150.000 cells/well), reference [125I]XII c = 0.2 nM, 1 h, 4° C., HBSS add. 1% BSA, mean ± SD (n = 3)

Row | Compound | logD7.4 [4] | Internalization (LNCaP cells) [%] | Binding to HSA [5] [%] | IC50 (PSMA [6]; [7]) [nM] | further results
1 | SiFA-Asn(AcNH-β-Glc)-Tyr^3-octreotate | – | – | – | – | log P(ow) [1]: 1.23
2 | PSMA-1007 [[^natF/^18F]PSMA-1007] | – | – | – | – | logP(o/w) [2]: −1.6; IC50 (PSMA [3]): 4.2 ± 0.5 nM
3 | O=C(O)CC[C@H](NC(=O)N[C@@H](CCCCNC(=O)c1ccc([18F])nc1)C(=O)O)C(=O)O [[^natF/^18F]DCFPyI, DCFPyI] | – | – | – | – | logP(o/w) [2]: −3.4
4 | OCc1ccccc1 [Benzyl alcohol] | – | – | – | – | Lit. HSA binding (HSA): 13.15%; Log K HSA (HSA): −0.8248
5 | Nc1ccccc1 [Aniline] | – | – | – | – | Lit. HSA binding (HSA): 14.06%; Log K HSA (HSA): −0.7912
6 | COc1ccc(Cl)cc1C(=O)NCCc1ccc(S(=O)(=O)NC(=O)NC2CCCCC2)cc1 [Glibenclamide] | – | – | – | – | Lit. HSA binding (HSA): 99.00%; Log K HSA (HSA): 1.695
7 | C[C@H](O)[C@@H](NC(=O)[C@@H](CCC(=O)O)NC(=O)[C@H](N)CCC(=O)O)C(=O)N[C@H](CNC(=O)c1ccc([Si](F)(C(C)(C)C)C(C)(C)C)cc1)C(=O)N[C@H](CCCCNC(=O)CCC(=O)NCCC[C@@H](NC(=O)CC[C@H](NC(=O)N[C@@H](CCC(=O)O)C(=O)O)C(=O)O)C(=O)O)C(=O)O [SiFA-PSMA ligand 03 h] (H-[dE][dE][dT][dDap](Benzoyl(4-SiFtBu2))[dK]([Suc-X1])-OH) | −3.66 ± 0.03 | 107.42 ± 3.66 | 97.8 | 10.7 ± 2.1 | –
8 | CC(C)(C)[Si](F)(c1ccc(C(=O)NC[C@@H](NC(=O)[C@@H](CN)NC(=O)CC[C@H](NC(=O)N[C@@H](CCC(=O)O)C(=O)O)C(=O)O)C(=O)N[C@H](CCCCNC(=O)CCC(=O)NCCC[C@@H](NC(=O)CC[C@H](NC(=O)N[C@@H](CCC(=O)O)C(=O)O)C(=O)O)C(=O)O)C(=O)O)cc1)C(C)(C)C [SiFA-PSMA ligand 01 e] | −3.96 ± 0.07 | 125.13 ± 1.14 | ≥99.0 | 9.2 ± 1.4 | –
9 | CC(C)(C)[Si](F)(c1ccc(C(=O)NC[C@@H](NC(=O)CCCCCNC(=O)CC[C@@H](NC(=O)N[C@H](CCC(=O)O)C(=O)O)C(=O)O)C(=O)N[C@H](CCCCNC(=O)CCC(=O)NCCC[C@@H](NC(=O)CC[C@H](NC(=O)N[C@@H](CCC(=O)O)C(=O)O)C(=O)O)C(=O)O)C(=O)O)cc1)C(C)(C)C [SiFA-PSMA ligand 02 d] | −3.24 ± 0.03 | 119.56 ± 5.84 | ≥98.9 | – | IC50 (PSMA [6]): 9.9 ± 0.8 nM
10 | CC(C)(C)[Si](F)(c1ccc(C(=O)NC[C@@H](NC(=O)[C@@H](CCCNC(N)=O)NC(=O)[C@@H](CCCNC(N)=O)NC(=O)[C@H](N)CCCNC(N)=O)C(=O)N[C@H](CCCCNC(=O)CCC(=O)NCCC[C@@H](NC(=O)CC[C@H](NC(=O)N[C@@H](CCC(=O)O)C(=O)O)C(=O)O)C(=O)O)C(=O)O)cc1)C(C)(C)C [SiFA-PSMA ligand 05] (H-[dCit][dCit][dCit][dDap](Benzoyl(4-SiFtBu2))[dK]([Suc-X1])-OH) | −3.17 ± 0.02 | 90.13 ± 6.13 | 95.7 | – | IC50 (PSMA [6]): 16.2 ± 2 nM
11 | CC(C)(C)[Si](F)(c1ccc(C(=O)NC[C@@H](NC(=O)[C@H](CCCCN)NC(=O)CC[C@H](NC(=O)N[C@@H](CCC(=O)O)C(=O)O)C(=O)O)C(=O)N[C@H](CCCCNC(=O)CCC(=O)NCCC[C@@H](NC(=O)CC[C@H](NC(=O)N[C@@H](CCC(=O)O)C(=O)O)C(=O)O)C(=O)O)C(=O)O)cc1)C(C)(C)C [SiFA-PSMA ligand 01 h] | −3.71 ± 0.16 | 142.95 ± 7.49 | 98.7 | 8.7 ± 0.6 | –
12 | O=C(O)CC[C@H](NC(=O)N[C@@H](CCCCNC(=O)[C@H](Cc1ccc2ccccc2c1)NC(=O)[C@H]1CC[C@H](CNC(=O)CN2CCN(CC(=O)O)CCN(CC(=O)O)CCN(CC(=O)O)CC2)CC1)C(=O)O)C(=O)O [[^68Ga]PSMA-617, PSMA-617, metal not drawn] | – | – | – | – | logP(o/w) [2]: −4.30 ± 0.10
13 | CC(C)(C)[Si](F)(c1ccc(C(=O)NC[C@@H](NC(=O)[C@@H](CC(=O)O)NC(=O)[C@@H](CCC(=O)O)NC(=O)[C@H](N)CCC(=O)O)C(=O)N[C@H](CCCCNC(=O)CCC(=O)NCCC[C@@H](NC(=O)CC[C@H](NC(=O)N[C@@H](CCC(=O)O)C(=O)O)C(=O)O)C(=O)O)C(=O)O)cc1)C(C)(C)C [SiFA-PSMA ligand 03 a] (H-[dE][dE][dD][dDap](Benzoyl(4-SiFtBu2))[dK]([Suc-X1])-OH) | −3.80 ± 0.06 | 135.74 ± 6.70 | 98.8 | 9.3 ± 1.7 | –
14 | SiFA-Asn(AcNH-β-Glc)-PEG-Tyr^3-octreotate | – | – | – | – | log P(ow) [1]: 0.96
15 | Oc1ccccc1 [Phenol] | – | – | – | – | Lit. HSA binding (HSA): 20.69%; Log K HSA (HSA): −0.589
16 | CC(C)(C)[Si](F)(c1ccc(C(=O)NC[C@@H](NC(=O)CCCCCNC(=O)CC[C@H](NC(=O)N[C@@H](CCC(=O)O)C(=O)O)C(=O)O)C(=O)N[C@H](CCCCNC(=O)CCC(=O)NCCC[C@@H](NC(=O)CC[C@H](NC(=O)N[C@@H](CCC(=O)O)C(=O)O)C(=O)O)C(=O)O)C(=O)O)cc1)C(C)(C)C [SiFA-PSMA ligand 02 c] | −3.27 ± 0.02 | 156.95 ± 13.21 | ≥99.0 | 5.9 ± 1 | –
17 | CC(C)(C)[Si](F)(c1ccc(C(=O)NC[C@@H](NC(=O)[C@@H](CCCCN)NC(=O)[C@@H](CCC(=O)O)NC(=O)[C@H](N)CCC(=O)O)C(=O)N[C@H](CCCCNC(=O)CCC(=O)NCCC[C@@H](NC(=O)CC[C@H](NC(=O)N[C@@H](CCC(=O)O)C(=O)O)C(=O)O)C(=O)O)C(=O)O)cc1)C(C)(C)C [SiFA-PSMA ligand 03 f] (H-[dE][dE][dK][dDap](Benzoyl(4-SiFtBu2))[dK]([Suc-X1])-OH) | −3.43 ± 0.02 | 94.24 ± 6.01 | 96.9 | 6.9 ± 1 | –
18 | CC(C)(C)[Si](F)(c1ccc(C(=O)NC[C@@H](NC(=O)[C@H](N)CNC(=O)CC[C@H](NC(=O)N[C@@H](CCC(=O)O)C(=O)O)C(=O)O)C(=O)N[C@H](CCCCNC(=O)CCC(=O)NCCC[C@@H](NC(=O)CC[C@H](NC(=O)N[C@@H](CCC(=O)O)C(=O)O)C(=O)O)C(=O)O)C(=O)O)cc1)C(C)(C)C [SiFA-PSMA ligand 02 a] | −3.65 ± 0.09 | 231.60 ± 14.21 | ≥98.9 | – | IC50 (PSMA [6]): 10.2 ± 1.2 nM
